{"source": "patent US10434086B2", "about": "“Combination therapies with curaxins” (Incuron, Inc., priority 2014, dated 2019)", "key": {"[1]": {"system": "HepG2 hepatocellular carcinoma tumors", "test": "HepG2 study: CBL0137/sorafenib against HepG2 HCC tumor engrafts", "type": "in vivo, nude mice", "excerpt": "(§1) Seventy and sixty female athymic nude mice were obtained for each H1975 Non-Small Cell Lung Cancer Xenograft study and split into treatment groups consisting of 10 animals per group (2 cages of 5 mice per cage).\n(§2) Preparation and subcutaneous implantation of tumor pieces: HepG2 tumors (passage 2 for HepG2 study and passage 1 for HepG2 (sub-dose CLB0137) study) or Hep3B tumors (passage 1 for Hep3B study and passage 9 for Hep3B (sub-dose CLB0137) study) were propagated in athymic nude mice and harvested from euthanized mice when they reached ˜500-900 mm^3. PDA tumors (passage 6) were propagated in SCID mice (both flanks) and harvested from euthanized mice when they reached ˜600-700 mm^3 in size. Harvested tumors were transferred to a sterile Petri dish containing RPMI-10% FBS medium or D-PBS plus penicillin/streptomycin. Enough media was added to bathe the tumor in order to ensure the viability of the transplant material. Tumors were dissected into 2 mm×2 mm cubes using a sterile scalpel. Care was taken to make the pieces as uniform in size and shape as possible. Tumor pieces were implanted into recipient mice immediately after being prepared.\n(§3) Tumor Size Measurements: Tumor size was measured by digital caliper in two dimensions (in mm): maximum length (l) and maximum width (w) taken perpendicular to one another. The measurements were used to calculate tumor volume according to the formula: tumor volume=(l×w2)/2 (w<l). The value obtained by this formula is also equal to the mass of the tumor in mg. Starting 2 days after tumor implantation, tumor measurements were made every 2-3 days prior to treatment initiation and then twice per week (e.g., on Day 1 (D1, the day of treatment initiation), D4, D8, D11, D15, D18, D22, D25, D29, D32, D36, D39, D43, D46, D50, D53 and D57). Tumor measurements were collected more frequently when tumor size approached the tumor size endpoint in order to prevent passing the endpoint between scheduled measurements.\n(§4) Administration of test and control articles: Mice were administered the designated solutions when the mean tumor volume per treatment group was ˜45-200 mm^3.\n(§5) The volume of the dosing solution administered orally or intravenously was 8 ml/kg of body weight, Intravenous injections were performed via the tail vein. Administration of drugs was done slowly without force on the syringe.\n(§6) Monitoring and Sample Collection: Twice daily, mice were monitored for mortality and morbidity for the duration of the experiment. […] All abnormal observations were documented and semi-quantitative scores were assigned for “body condition,” “posture,” and “activity.” Scores of 4, 3, 2, and 1 were assigned to normal conditions (4), and slightly (3), moderately (2) and severely (1) abnormal conditions, respectively. Cages were taken to a laminar flow hood and opened in order to clearly assess mouse activity.\nData analysis: For all study groups, maximum tumor growth inhibition was calculated for Day 11, 13, or 15 (Day X). […] For each tumor, relative tumor size was calculated relative to its size on Day 1 when treatment was initiated (i.e., fold tumor growth). To calculate the maximum tumor growth inhibition for each tumor, the following equation was used: 100−(fold tumor growth drug-treated Day X/mean fold tumor growth vehicle-treated Day X)*100. Differences in tumor sizes between groups were determined using ANOVA analysis (GraphPad Prism 5 Software) where “*” refers to P=0.01-0.05 (significant), “**” refers to P=0.001-0.01 (very significant) and “***” refers to P<0.001 (extremely significant), Differences that were not statistically significant are indicated with “ns”."}, "[2]": {"system": "HepG2 hepatocellular carcinoma tumors", "test": "HepG2 (sub-dose CBL0137) study", "type": "in vivo, nude mice", "excerpt": "as §1, §2, §3, §4, §5, §6\nData analysis: For all study groups, maximum tumor growth inhibition was calculated for Day 11, 13, or 15 (Day X). […] For each tumor, relative tumor size was calculated relative to its size on Day 1 when treatment was initiated (i.e., fold tumor growth). To calculate the maximum tumor growth inhibition for each tumor, the following equation was used: 100−(fold tumor growth drug-treated Day X/mean fold tumor growth vehicle-treated Day X)*100. Differences in tumor sizes between groups were determined using ANOVA analysis (GraphPad Prism 5 Software) where “*” refers to P=0.01-0.05 (significant), “**” refers to P=0.001-0.01 (very significant) and “***” refers to P<0.001 (extremely significant), Differences that were not statistically significant are indicated with “ns”. […] Tumor growth delay (T−C) was calculated by subtracting the median time for the control to reach the 1000 mm^3 size endpoint from that of the median time for the treated groups to reach the size endpoint."}, "[3]": {"system": "Hep3B hepatocellular carcinoma tumors", "type": "in vivo, nude mice", "excerpt": "as §1, §2, §3, §4\nThe volume of the dosing solution administered orally or intravenously was 8 ml/kg of body weight, Intravenous injections were performed via the tail vein. […]\n(§7) Monitoring and Sample Collection: Twice daily, mice were monitored for mortality and morbidity for the duration of the experiment. […] All abnormal observations were documented and semi-quantitative scores were assigned for “body condition,” “posture,” and “activity.” Scores of 4, 3, 2, and 1 were assigned to normal conditions (4), and slightly (3), moderately (2) and severely (1) abnormal conditions, respectively. […]\n(§8) Data analysis: For all study groups, maximum tumor growth inhibition was calculated for Day 11, 13, or 15 (Day X). […] For each tumor, relative tumor size was calculated relative to its size on Day 1 when treatment was initiated (i.e., fold tumor growth). […] Differences in tumor sizes between groups were determined using ANOVA analysis (GraphPad Prism 5 Software) where “*” refers to P=0.01-0.05 (significant), “**” refers to P=0.001-0.01 (very significant) and “***” refers to P<0.001 (extremely significant), Differences that were not statistically significant are indicated with “ns”. […] Tumor growth delay (T−C) was calculated by subtracting the median time for the control to reach the 1000 mm^3 size endpoint from that of the median time for the treated groups to reach the size endpoint."}, "[4]": {"system": "Hep3B hepatocellular carcinoma tumors", "test": "Hep3B (sub-dose CBL0137) study", "type": "in vivo, nude mice", "excerpt": "as §1, §2\nTumor Size Measurements: Tumor size was measured by digital caliper in two dimensions (in mm): maximum length (l) and maximum width (w) taken perpendicular to one another. The measurements were used to calculate tumor volume according to the formula: tumor volume=(l×w2)/2 (w<l). The value obtained by this formula is also equal to the mass of the tumor in mg. […]\nas §7, §8"}, "HepG2 and Hep3B": {"system": "HepG2 and Hep3B", "details": "HepG2 only (Hep3B is p53 null)", "excerpt": "Specifically, the Western blots monitored expression of spt16, SSRP1, p53, p21, P-ERK, ERK, Mcl-1, and GAPDH (control). Panel A corresponds to the tumor-bearing nude mice from the HepG2 study whereas Panel B corresponds to the tumor-bearing nude mice from the Hep3B study.\nSpecifically, the Western blots monitored the effect of drug treatment on expression of spt16, SSRP1, p53, p21, P-ERK, ERK, Mcl-1, and GAPDH (control) proteins, of which most are involved in cell cycle progression and regulation."}, "[5]": {"system": "NF-κB target genes (IL-8 and TNF)", "test": "Real-time PCR of NF-κB target genes (IL-8 and TNF) in HepG2 and Hep3B", "type": "cell-based", "details": "2 h after exposure; basal and TNF-induced; both HCC cell lines"}, "[6]": {"details": "median time to reach tumor size endpoint, treated minus control"}}, "note": "Read-outs that look alike come from different tables or passages of the source.", "data": [{"smiles": "CNC(=O)c1cc(Oc2ccc(NC(=O)Nc3ccc(Cl)c(C(F)(F)F)c3)cc2)ccn1", "note": "[sorafenib]", "values": [{"measurement": "T/C %", "setting": "[1]; Day 15, sorafenib 15 mg/kg po daily, CBL0137 70 mg/kg iv Q4d", "value": 72.6, "unit": "%"}, {"measurement": "mean change in tumor volume versus Day 1", "setting": "[1]; Day 15, sorafenib 15 mg/kg po daily, CBL0137 70 mg/kg iv Q4d, vehicle 9.0-fold", "value": 8.4, "unit": "fold"}, {"measurement": "antitumor efficacy (in words)", "setting": "[1]; HepG2 study summary", "value": "had no effect against HepG2 tumor growth"}, {"measurement": "median survival time (MST)", "setting": "[1]; HepG2 study, sorafenib 15 mg/kg po daily, CBL0137 70 mg/kg iv Q4d, 4 weeks, vehicle 15 days", "value": 15, "unit": "days"}, {"measurement": "Tumor growth delay (T−C)", "setting": "[1]; [6]", "value": 5.65, "unit": "days"}, {"measurement": "tumors that grew showing some degree of regression during the course of treatment", "setting": "[1]; sorafenib 15 mg/kg po daily, CBL0137 70 mg/kg iv Q4d, vehicle 0/16", "value": "0/14"}, {"measurement": "mean change in tumor volume versus Day 1", "setting": "[2]; Day 13, vehicle 13.2-fold", "value": 3.2, "unit": "fold"}, {"measurement": "antitumor efficacy (in words)", "setting": "[2]; HepG2 (sub-dose CBL0137) study summary", "value": "effectively suppressed HepG2 tumor growth"}, {"measurement": "tumor growth inhibition", "setting": "[2]; between Days 1 and 13", "value": 76, "unit": "%"}, {"measurement": "median time to reach the tumor size endpoint", "setting": "[2]; by extrapolation from exponential growth curves, vehicle 12.6 days", "value": 29.6, "unit": "days"}, {"measurement": "Tumor growth delay (T−C)", "setting": "[2]; [6]", "value": 17, "unit": "days"}, {"measurement": "median survival time (MST)", "setting": "[2]; sorafenib 30 mg/kg po daily, CBL0137 60 mg/kg iv Q4d, 4 weeks, vehicle 13 days", "value": 27.5, "unit": "days"}, {"measurement": "tumor growth inhibition", "setting": "[3]; Day 11", "value": 67.2, "unit": "%"}, {"measurement": "T/C %", "setting": "[3]; Day 11, size relative to vehicle-treated tumors", "value": 33.4, "unit": "%"}, {"measurement": "mean change in tumor volume versus Day 1", "setting": "[3]; Day 11, vehicle 9.08-fold", "value": 2.98, "unit": "fold"}, {"measurement": "antitumor efficacy (in words)", "setting": "[3]; Hep3B study summary", "value": "efficacious in suppressing growth of Hep3B engrafts"}, {"measurement": "median survival time (MST)", "setting": "[3]; sorafenib 30 mg/kg po daily, CBL0137 60 mg/kg iv Q4d, 4 weeks, vehicle 11 days", "value": 25, "unit": "days"}, {"measurement": "mean change in tumor volume versus Day 1", "setting": "[4]; Day 15, vehicle 21.0-fold", "value": 10.2, "unit": "fold"}, {"measurement": "tumor growth inhibition", "setting": "[4]; between Days 1 and 15", "value": 51.4, "unit": "%"}, {"measurement": "antitumor efficacy (in words)", "setting": "[4]; dT, time to endpoint, growth delay, T/C %", "value": "stronger beneficial effect"}, {"measurement": "median survival time (MST)", "setting": "[4]; sorafenib 30 mg/kg po daily, CBL0137 50 mg/kg iv Q4d, 4 weeks, vehicle 14.5 days", "value": 21.5, "unit": "days"}, {"measurement": "induction of p53 and p21 by CBL0137 (Western blot)", "setting": "HepG2 and Hep3B", "value": "blocked this induction"}, {"measurement": "expression of NF-κB target genes (IL-8 and TNF)", "setting": "[5]", "value": "have an effect on expression of NF-κB target genes, albeit less than CBL0137"}]}]}
